Source: patent publication US8563715B2, “Pyrimidine derivative having cell protecting effect and uses thereof” (Zenyaku Kogyo Kabushikikaisha, priority 2008, dated 2013)

Key:
[1] = system: astrocyte/neuron co-culture; assay: Brain cell damage induced by hydrogen peroxide treatment (LDH assay); type: cell-based; settings: Rattus norvegicus, hydrogen peroxide (250 μM), 24 hours, read-out: 50% inhibition concentration against cell damage in entire co-culture system (EC50 value)
Experimental: (§1) The brain was removed from 1 to 2 day old Wistar rats (Charles River) or Sprague-Dawley (IGS) rats (Charles River), and the cerebral cortex including the hippocampus was excised under ice cooling. After this cerebral cortex was minced, it was digested with papain solution (9 U/ml) containing DNase I (30 U/ml) at 37 degrees Celsius for 15 minutes, dispersing the cells. After further carrying out mechanical dispersing by pipetting, it was passed through a cell strainer with a pore size of 70 μm, and a cell suspension was obtained. Cells derived from 1.4 cerebra were seeded on 150 mm tissue culture dish (Iwaki Glass), and primary culture was carried out at 37 degrees Celsius and 5% CO2 using a D-MEM medium (Invitrogen) containing 10% heat-inactivated fetal calf serum (JRH). One day after the start of the culture, the nonadherent cells were removed, and the primary cultured astrocytes were obtained by continuing the culture for 4 to 5 further days. The primary cultured astrocytes were dispersed by trypsin treating, suspended in cryopreservation solution, and cryopreserved.
(§2) After thawing the cryopreserved primary cultured astrocytes, they were seeded on tissue culture plates (Iwaki Glass), and a confluent astrocyte layer was produced by a further 7 days of secondary culture using a D-MEM medium containing 10% heat-inactivated fetal calf serum. Neurons to be used in the co-culture with the astrocyte layer were obtained from fetal rat cerebrum. Briefly, brains were removed from Wistar rats (Charles River) or Sprague-Dawley (IGS) rats (Charles River) of embryonic age 18.5 days, and the cerebral cortex including the hippocampus was excised under ice cooling. After this cerebral cortex was minced, it was digested in papain solution (9 U/ml) containing DNase I (30 U/ml) at 37 degrees Celsius for 15 minutes, dispersing the cells. After further carrying out mechanical dispersing by pipetting, it was passed through a cell strainer with a pore size of 70 μm, and a cell suspension was obtained. This cell suspension was plated at a density of 1.3×10^5 cells/cm^2 on the astrocyte layer, and a co-culture was carried out using D-MEM/F-12 medium (Invitrogen) containing 10% heat-inactivated fetal calf serum and 5% horse serum (Invitrogen). 2 days after the start of the co-culture, cells were treated for 24 hours with 10 μM cytosine arabinoside in order to suppress the excessive cell proliferation of microglia and the like. 8 to 9 days after the start of the co-culture, cells were used for the test. Additionally, using one portion of the cells, immunofluorescent staining and nuclear staining was carried out with astrocyte recognizing antibodies (anti-GFAP) and neuron recognizing antibodies (anti-MAP2), in order to confirm that the present culture system is a co-culture system of astrocytes and neurons.
(§3) An astrocyte/neuron co-culture cultured on a 96 well plate was used in the test. A predetermined concentration of the test substance and hydrogen peroxide (250 μM) was simultaneously added to the cell culture in each well with continuing cultivation, and analysis was done 24 hours after this treatment. Using an LDH Cytotoxicity Detection Kit (Takara Bio), analysis was carried out in accordance with the included instruction manual, and the damage to the entire co-culture system by the hydrogen peroxide treatment and the protective effect (EC 50 value) of the test substance was evaluated. Further, the cell bodies and the neuronal processes of the neurons were observed by microscope, and the neuroprotective effect was evaluated.

[2] = system: neurons in astrocyte/neuron co-culture; assay: Brain cell damage induced by hydrogen peroxide treatment (neuroprotective effect, microscope observation); type: cell-based; settings: Rattus norvegicus, hydrogen peroxide (250 μM), 24 hours, read-out: Concentration for complete inhibition of neuronal death
Experimental: as §1, §2, §3

[3] = system: rat brain homogenate (lipid peroxide production); assay: Antioxidant activity test (rat brain homogenate autoxidation test); type: biochemical; settings: lipid peroxide production suppression, 2 hours at 37 degrees Celsius, thiobarbituric acid method
Experimental: The cerebrum was removed from 7 to 11 week old male Wistar rats (Nihon Ikagaku) or male Sprague-Dawley (IGS) rats (Charles River), physiological saline was added, and a 20% brain homogenate was made. 4 μl of test compound dissolved in DMSO was mixed with 200 μl of brain homogenate and 200 μl of PBS (−) (diluted 100 times), incubated for 2 hours at 37 degrees Celsius and shaken at a rate of 160 times per minute, thereby producing a lipid peroxide. After cooling for 5 minutes, the produced lipid peroxide was measured as a thiobarbituric acid reactive substance by using the thiobarbituric acid method. Briefly, 100 μl of 8.1% dodecyl sulfate, 750 μl of 20% acetic acid adjusted to a pH of 3.5, and 750 μl of 0.8% thiobarbituric acid were added, and boiled for 60 minutes, and then cooled. Next, 500 μl of distilled water and 2.5 ml of N-butanol/pyridine (15:1) were added and after 5 minutes of shaking, the supernatant was taken after centrifuging for 10 minutes at 3000 rpm, and the absorbance at 532 nm was measured. The number of examples was 2 examples. Calculation was done of the (absorbance at each concentration/absorbance of a solvent control)×100, and after logit transformation, the lipid peroxide production suppression effect (IC 50 value) was calculated as an indicator of antioxidant activity.

SMILES	EC50 [1]	EC100 [2]	IC50 [3]
Cc1ccc(N2CCN(c3nc(N4CCNCC4)nc(N4CCOCC4)c3F)CC2)cc1 [Compound 149, 5-fluoro-4-[4-(4-methylphenyl)piperazin-1-yl]-6-morpholino-2-(1-piperazinyl)pyrimidine]	0.42 µM	10 µM	9.75 µM
COc1ccc(/C=C/c2nc(NCC(=O)OC(C)(C)C)c(N)c(N3CCOCC3)n2)cc1 [Compound 197, 5-amino-4-(4-tert-butoxycarbonylmethylamino)-2-[2-(4-methoxyphenyl)vinyl]-6-morpholinopyrimidine]	0.55 µM	3 µM	0.99 µM
Fc1c(N2CC=C(c3ccccc3)CC2)nc(N2CCOCC2)nc1N1CCOCC1 [Compound 121, 5-fluoro-2,4-dimorpholino-6-(4-phenyl-1,2,5,6-tetrahydropyridin-1-yl)pyrimidine]	0.32 µM	1 µM	5.05 µM
Nc1c(N2CCOCC2)nc(/C=C/c2ccc(N3CCCCC3)cc2)nc1N1CCOCC1 [Compound 136, 5-amino-4,6-dimorpholino-2-[2-(4-piperidinophenyl)vinyl]pyrimidine]	0.73 µM	3 µM	1.69 µM
Cn1c(/C=C/c2nc(N3CCOCC3)c(N)c(N3CCOCC3)n2)cc2sccc21 [Compound 133, 5-amino-2-[2-(4-methylthiopheno[1,2-b]pyrrol-5-yl)vinyl]-4,6-dimorpholinopyrimidine]	2.03 µM	30 µM	1.04 µM
Fc1c(N2CCOCC2)nc(N2CCOCC2)nc1N1CCNC(c2ccccc2)C1 (stereo not drawn) [Compound 94, 5-fluoro-2,4-dimorpholino-6-(3-phenylpiperazin-1-yl)pyrimidine]	0.68 µM	3 µM	16 µM
CN(C)c1nc(N2CCOCC2)c(F)c(N2CCN(c3ccccn3)CC2)n1 [Compound 91, 2-dimethylamino-5-fluoro-6-morpholino-4-[4-(pyridin-2-yl)piperazin-1-yl]pyrimidine]	0.88 µM	10 µM	5.88 µM
COc1ccc(/C=C/c2nc(N3CCNCC3)c(N)c(N3CCOCC3)n2)cc1 [Compound 170, 5-amino-2-[2-(4-methoxyphenyl)vinyl]-4-morpholino-6-(1-piperazinyl)pyrimidine]	0.99 µM	3 µM	3.1 µM
COc1ccc(/C=C/c2nc(N3CCOCC3)c(N)c(N3CCC(N)CC3)n2)cc1 [Compound 196, 5-amino-4-(4-aminopiperidin-1-yl)-2-[2-(4-methoxyphenyl)vinyl]-6-morpholinopyrimidine]	3.78 µM	10 µM	2.73 µM
Fc1c(N2CCOCC2)nc(N2CCc3ccccc3C2)nc1N1CCOCC1 [Compound 122, 5-fluoro-4,6-dimorpholino-2-(1,2,3,4-tetrahydro-2H-isoquinolin-2-yl)pyrimidine]	0.29 µM	1 µM	5.48 µM
COc1ccc(/C=C/c2nc(N(C)C)c(N)c(N(C)C)n2)cc1 [Compound 140, 5-amino-4,6-bis(dimethylamino)-2-[2-(4-methoxyphenyl)vinyl]pyrimidine]	5.15 µM	10 µM	0.55 µM
Cc1cccc(N2CCN(c3nc(N4CCOCC4)c(F)c(N4CCOCC4)n3)CC2)c1C [Compound 105, 5-fluoro-4,6-dimorpholino-2-[4-(2,3-xylyl)piperazin-1-yl]pyrimidine]	0.29 µM	1 µM	2.77 µM
Nc1c(N2CCOCC2)nc(N2CCN(c3ccccc3)CC2)nc1N1CCOCC1 [Compound 63, 5-amino-4,6-dimorpholino-2-(4-phenylpiperazin-1-yl)pyrimidine]	8.3 µM	30 µM	0.81 µM
Nc1c(N2CCOCC2)nc(N2CCC(Cc3ccccc3)CC2)nc1N1CCOCC1 [Compound 66, 5-amino-2-(4-benzylpiperidin-1-yl)-4,6-dimorpholinopyrimidine]	2.86 µM	30 µM	0.82 µM
c1ccc(N2CCN(c3cc(N4CCOCC4)nc(N4CCN(c5ccccc5)CC4)n3)CC2)cc1 [Compound 57, 2,4-bis(4-phenylpiperazin-1-yl)-6-morpholinopyrimidine]	5.12 µM	30 µM	30.5 µM
COc1ccc(/C=C/c2nc(N3CCOCC3)c(N)c(N(C)C3CCN(C)CC3)n2)cc1 [Compound 198, 5-amino-2-[2-(4-methoxyphenyl)vinyl]-4-[N-methyl-N-(1-methylpiperidin-4-yl)amino]-6-morpholinopyrimidine]	3.74 µM	10 µM	1.04 µM
COc1ccc(/C=C/c2nc(N3CCOCC3)c(F)c(N3CCOCC3)n2)cc1 [Compound 216, 5-fluoro-2-[2-(4-methoxyphenyl)vinyl]-4,6-dimorpholinopyrimidine]	0.73 µM	3 µM	0.86 µM
CN(C)c1nc(N2CCOCC2)c(F)c(N2CCN(c3ccccc3Cl)CC2)n1 [Compound 110, 4-[4-(2-chlorophenyl)piperazin-1-yl]-2-dimethylamino-5-fluoro-6-morpholinopyrimidine]	0.33 µM	1 µM	3.02 µM
